# From US20070202079A1, “Therapeutic compositions and methods useful in modulating protein tyrosine phosphatases” (priority 2006, published 2007)
# Columns and labels:
# NB4 cells [1] = assay: NB4 growth, cell cycle and Annexin V; assay type: cell-based, human
# Protocol: The NB4 cell line (Lanotte et al., Blood 77, 1080 (1991)) was a gift from Dr. Dan Lindner of the Cleveland Clinic Foundation. […] and U937 cell lines were purchased from American Type Culture Collection (Rockville, Md.). These human […] cell lines were maintained in RPMI 1640 medium supplemented with 10% fetal calf serum (FCS). For cell proliferation assays, cells were cultured at 37° C. in 10% FCS medium containing various amounts of sodium stibogluconate for 6 days. The cell numbers in the cultures were determined by an MTT assay as described previously in Mosmann, J. Immunol. Methods 65, 55 (1983).
# The cell cycle was analyzed by flow cytometry after 3 days of culture of NB4 cells in the absence or presence of sodium stibogluconate (250 μg/ml) or ATRA (1 μM). Briefly, the cells were fixed in cold ethanol and incubated for 30 minutes at 4° C. in the dark with a solution of […] propidium iodide, 1 mg/ml RNase and 0.1% NP-40. Analysis was performed immediately after staining using the CELLFIT program (Becton Dickinson, Mountain View, Calif.).
# Annexin V staining of exposed membrane phospholipid phosphatidylserine (PS) was done using the Annexin V assay kit (Pharmingen, San Diego, Calif.). Briefly, NB4 cells were cultured in the 10% FCS RPMI 1640 medium in the absence or presence of sodium stibogluconate (250 μg/ml) or ATRA (1 μM) for 3 days. Cells were then washed in PBS twice and stained in binding buffer (10 mM Hepes, pH 7.4; 140 mM NaCl; 2.5 mM CaCl2) containing Annexin V-FITC and propidium iodide for 15 min. The reaction was stopped by adding 10 volumes of binding buffer and analyzed by FACS (Becton Dickinson Facsvantage).
# Flag-PRL-1 = biological target: T1, Flag-PRL-1 (Homo sapiens, UniProt Q93096); assay: immunocomplex PTPase assay, NIH3T3 Flag-PRL-1 transfectants; assay type: cell-based, mouse; settings: cells treated 5 min
# T1 construct: expressed in transfected cells; host or cells: WM9 human melanoma cell line (pBabepuro, puromycin-selected)
# Protocol: (§1) Immunocomplex PTPase assays were performed to assess the effects of sodium stibogluconate on intracellular PTPases. Cells were untreated or treated with sodium stibogluconate for 5 minutes, washed with fresh medium and then lysed in cold lysis buffer (50 mM Tris, pH 7.4; 150 mM NaCl; 1% NP40; 2 mM PMSF; 20 μg/ml of Aprotinin). The lysates were incubated with an anti-Flag antibody in immunoprecipitation assays. The immunocomplexes were collected with protein G sepharose beads (Pharmacia) and washed in cold lysis buffer for 4 times. […] C. for 18 hrs. 100 μL of malachite green solution (UBI) was added to each reaction prior to measurement of OD660 to quantify the amounts of free phosphate cleaved by the PTPases from the peptide substrate (Pathak et al., J. Immunol. 167, 3391 (2001)). The remaining 10% contents of individual samples were analyzed by SDS-PAGE/Western blotting to quantify the relative amounts of the phosphatase proteins. […]
# (§2) The effects of sodium stibogluconate on intracellular PTPases were assessed using NIH3T3 or WM9 transfectants. […]
# Flag-PRL-3 = biological target: T2, Flag-PRL-3 (Homo sapiens, UniProt O75365); assay: immunocomplex PTPase assay, NIH3T3 Flag-PRL-3 transfectants; assay type: cell-based, mouse; settings: cells treated 5 min
# T2 construct: expressed in transfected cells; host or cells: NIH3T3 (pBabepuro, puromycin-selected)
# Protocol: as §1, §2
# DS cells = assay: DS cell growth, MTT; assay type: cell-based, human; settings: day 3; IFN-alpha 1,000 u/ml or sodium stibogluconate by itself
# Protocol: (§3) For cell proliferation assays, cells were grown in 10% FCS culture medium containing various amounts of IFNs and/or sodium stibogluconate in 96 well plates and cultured at 37° C. for 3 or 6 days as indicated. The numbers of viable cells in proliferation assays were determined by MTT assays as described in Phatak et al., J. Immunol. 167, 3391 (2001).
# NB4 cells [2] = assay: NB4 differentiation (NBT reduction, CD11b); assay type: cell-based, human; settings: 6 days with drug, washed, 6 days without
# Protocol: Differentiation of AML cell lines was assessed by their ability to produce superoxide as measured by reduction of NBT to formazan and by analysis of expression of CD11b surface marker by flow cytometry. For NBT reduction, each cell suspension was mixed with an equal volume of solution containing 1 mg/ml of NBT (Sigma) and 2.5 μg/ml of TPA for 30 minutes at 37° C. After incubation, cells containing the purple formazan deposits and cells devoid of NBT-reducing activity (white cells) in each sample were determined by counting 200 cells under microscope. Data is expressed as a percentage based on the following ratio: purple cells/purple+white cells. For analysis of cell surface antigens, cells were exposed to phycoerythrin (PE)-conjugated murine anti-human CD11b (DAKO Corp., Carpinteria, Calif.). Analysis of fluorescence was performed on a FACScan flow cytometer (Beckton Dickinson, Mountain View, Calif.).
# DU145R cells = assay: DU145R cell growth, MTT; assay type: cell-based, human; settings: day 6 culture
# Protocol: DU145 cells were cultured in the presence of sodium stibogluconate (100 μg/ml) in 48 well plates for 3 weeks. Cells from a well containing a single colony were transferred to flasks, cultured in sodium stibogluconate-free medium for 3 weeks and used as DU145R cells for further characterization. Growth of DU145R cells in the absence or presence of sodium stibogluconate in day 6 culture was determined by MTT assays. cDNAs of the coding region of PRLs were derived by RT-PCR from DU145 and DU145R cells and sequenced using primers described below.
# WM35 = WM35 cell growth, MTT; assay type: cell-based, human
# Protocol: as §3
# T1 sequence (Q93096 whole entry): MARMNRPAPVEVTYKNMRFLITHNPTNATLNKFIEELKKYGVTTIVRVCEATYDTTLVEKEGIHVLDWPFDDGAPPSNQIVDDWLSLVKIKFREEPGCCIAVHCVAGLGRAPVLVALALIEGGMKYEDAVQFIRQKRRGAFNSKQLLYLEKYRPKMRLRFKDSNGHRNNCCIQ
# T2 sequence (O75365 whole entry): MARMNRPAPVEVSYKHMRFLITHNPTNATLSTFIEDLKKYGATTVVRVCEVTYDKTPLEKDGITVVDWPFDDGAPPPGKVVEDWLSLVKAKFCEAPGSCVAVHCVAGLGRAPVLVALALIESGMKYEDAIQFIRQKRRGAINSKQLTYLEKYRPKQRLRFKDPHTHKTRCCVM
structure (smiles),measurement,setting,value
O.O.O.O.O.O.O.O.O.O=C([O-])[C@@H]1[O][Sb]2([O-])([O][Sb]34([OH])[O][C@H]([C@H](O)CO)[C@H]([O]3)[C@H](C(=O)[O-])[O]4)[O][C@H]([C@H](O)CO)[C@@H]1[O]2.[Na+].[Na+].[Na+] [sodium stibogluconate],Annexin V staining of NB4 cells,"NB4 cells [1]; 250 μg/ml, 6 days",stained positive by Annexin V
same,proliferation of NB4 cells,NB4 cells [1]; 12.5-400 μg/ml,markedly inhibited
same,cell cycle of NB4 cells,"NB4 cells [1]; sodium stibogluconate 250 μg/ml or ATRA 1 μM, 3 days",significant increase of cells at S phase
same,PTPase activity of immunocomplexes from treated Flag-PRL-1 transfectants,Flag-PRL-1,little PTPase activities
same,PTPase activity of immunocomplexes from treated Flag-PRL-3 transfectants,Flag-PRL-3,lack of PTPase activity
same,DS cell growth,DS cells,modest activity
same,reversal of NB4 differentiation after drug removal,NB4 cells [2],not reversed
same,growth of DU145R versus parental DU145 in presence of drug,DU145R cells,growth resistance
same,sensitivity of WM35 cells,WM35,minimally affected
